Assay results taken from patent US20240384350A1, “METHODS OF TREATING CANCER WITH KINASE INHIBITORS” (BOARD OF REGENTS, THE UNIVERSITY OF TEXAS SYSTEM, priority 2021, published 2024).

Tests used:
Test in all cases: Ba/F3 drug screening, Cell Titer Glo, IC50 Mut/WT
Type in all cases: cell-based
EGFR L858R T790M L718V = target: T1, EGFR L858R T790M L718V (Homo sapiens, UniProt P00533, L718V/L858R/T790M); conditions: T790M-like-3R, 72 hours
T1 construct: expressed in transfected cells; host or cells: Ba/F3

EGFR L747S = target: T2, EGFR L747S (Homo sapiens, UniProt P00533, L747S); conditions: Ba/F3 cells, EGFR L747S (PACC), Mut/WT
T2 construct: expressed in transfected cells; host or cells: Ba/F3

EGFR G719A = target: T3, EGFR G719A (Homo sapiens, UniProt P00533, G719A); conditions: Ba/F3 cells, EGFR G719A (PACC), Mut/WT
T3 construct: expressed in transfected cells; host or cells: Ba/F3

EGFR S768I/T790M = target: T4, EGFR S768I/T790M (Homo sapiens, UniProt P00533, S768I/T790M); conditions: T790M-like-3S, 72 hours
T4 construct: expressed in transfected cells; host or cells: Ba/F3

EGFR Ex19del L718Q = target: T5, EGFR Ex19del L718Q (Homo sapiens, UniProt P00533, DEL746-750/L718Q); conditions: Ba/F3 cells, EGFR Ex19del L718Q (PACC), Mut/WT
T5 construct: expressed in transfected cells; host or cells: Ba/F3

EGFR A767insASV = target: T6, EGFR A767insASV (Homo sapiens, UniProt P00533, DUP767-769); conditions: Ex20, 72 hours
T6 construct: expressed in transfected cells; host or cells: Ba/F3 cells, retroviral pBabe-Puro vector

EGFR G719A T790M = target: T7, EGFR G719A T790M (Homo sapiens, UniProt P00533, G719A/T790M); conditions: T790M-like-3S, 72 hours
T7 construct: expressed in transfected cells; host or cells: Ba/F3
Procedure: Data represent the ratio of the IC50 value for a given TKI for cells with a T790M-like-3S EGFR mutation to the IC50 value for cells with wildtype EGFR.
(§1) Ba/F3 cell generation, drug screening, and IC50 approximations. Ba/F3 cells were obtained as a gift from Dr. Gordon Mills (MD Anderson Cancer Center), and maintained in RPMI (Sigma) containing 10% FBS, 1% penicillin/streptomycin, and 10 ng/ml recombinant mIL-3 (R&D Biosystems). To establish stable Ba/F3 cell lines, Ba/F3 cells were transduced with retroviruses containing mutant EGFR plasmids for 12-24 hours.
(§2) After 48-72 hours of transduction, 2 μg/ml puromycin (Invitrogen) was added to Ba/F3 cell lines in complete RPMI. To select for EGFR positive cell lines, cells were stained with PE-EGFR (Biolegend) and sorted by FACS. After sorting, EGFR positive cells were maintained in RPMI containing 10% FBS, 1% penicillin/streptomycin, and 1 ng/ml EGF to support cell viability. Drug screening was performed as previously described^41,42. Shortly, cells were plated in 384-well plates (Greiner Bio-One) at 2000-3000 cells per well in technical triplicate. Seven different concentrations of TKIs or DMSO vehicle were added to reach a final volume of 40 μL per well. After 72 hours, 11 μL of Cell Titer Glo (Promega) was added to each well. Plates were incubated for a minimum of 10 minutes, and bioluminescence was determined using a FLUOstar OPTIMA plate reader (BMG LABTECH). Raw bioluminescence values were normalized to DMSO control treated cells, and values were plotted in GraphPad Prism. […] Drug screens were performed in technical triplicate on each plate and either duplicate or triplicate biological replicates.

EGFR Ex19del T854I = target: T8, EGFR Ex19del T854I (Homo sapiens, UniProt P00533, DEL746-750/T854I); conditions: Ba/F3 cells, EGFR Ex19del T854I (PACC), Mut/WT
T8 construct: expressed in transfected cells; host or cells: Ba/F3 (retroviral transduction, pBabe-Puro based vectors)

EGFR E709K G719S = target: T9, EGFR E709K G719S (Homo sapiens, UniProt P00533, E709K/G719S); conditions: Ba/F3 cells, EGFR E709K G719S (PACC), Mut/WT
T9 construct: expressed in transfected cells; host or cells: Ba/F3

EGFR R776C = target: T10, EGFR R776C (Homo sapiens, UniProt P00533, R776C); conditions: Ba/F3 cells, EGFR R776C (PACC), Mut/WT
T10 construct: host or cells: Ba/F3
Procedure: (§3) Data represent the ratio of the IC50 value for a given TKI for cells with a PACC EGFR mutation to the IC50 value for cells with wildtype EGFR.
as §1, §2

EGFR Ex19del G796S = target: T11, EGFR Ex19del G796S (Homo sapiens, UniProt P00533, DEL746-750/G796S); conditions: Ba/F3 cells, EGFR Ex19del G796S (PACC), Mut/WT
T11 construct: expressed in transfected cells; host or cells: Ba/F3

EGFR L858R G724S = target: T12, EGFR L858R G724S (Homo sapiens, UniProt P00533, G724S/L858R); conditions: Ba/F3 cells, EGFR L858R G724S (PACC), Mut/WT
T12 construct: expressed in transfected cells; host or cells: Ba/F3 (retroviral transduction, pBabe-Puro based vectors)

EGFR Ex19del L718V = target: T13, EGFR Ex19del L718V (Homo sapiens, UniProt P00533, DEL746-750/L718V); conditions: Ba/F3 cells, EGFR Ex19del L718V (PACC), Mut/WT
T13 construct: expressed in transfected cells; host or cells: Ba/F3
Procedure: as §3, §1, §2

EGFR Ex19del T790M C797S = target: T14, EGFR Ex19del T790M C797S (Homo sapiens, UniProt P00533, C797S/DEL746-750/T790M); conditions: T790M-like-3R, 72 hours
T14 construct: expressed in transfected cells; host or cells: Ba/F3

EGFR I740dupIPVAK = conditions: Ba/F3 cells, EGFR I740dupIPVAK (PACC), Mut/WT
EGFR S768I = target: T15, EGFR S768I (Homo sapiens, UniProt P00533, S768I); conditions: Ba/F3 cells, EGFR S768I (PACC), Mut/WT
T15 construct: expressed in transfected cells; host or cells: Ba/F3

EGFR V774M = target: T16, EGFR V774M (Homo sapiens, UniProt P00533, V774M); conditions: Ba/F3 cells, EGFR V774M (PACC), Mut/WT
T16 construct: host or cells: Ba/F3
Procedure: as §3, §1, §2

EGFR L858R/L792H = target: T17, EGFR L858R/L792H (Homo sapiens, UniProt P00533, L792H/L858R); conditions: Ba/F3 cells, EGFR L858R/L792H (PACC), Mut/WT
T17 construct: expressed in transfected cells; host or cells: Ba/F3

EGFR G724S = target: T18, EGFR G724S (Homo sapiens, UniProt P00533, G724S); conditions: Ba/F3 cells, EGFR G724S (PACC), Mut/WT
T18 construct: expressed in transfected cells; host or cells: Ba/F3
Procedure: as §3, §1, §2

EGFR L858R = target: T19, EGFR L858R (Homo sapiens, UniProt P00533, L858R); conditions: Classical-Like, 72 hours
T19 construct: expressed in transfected cells; host or cells: Ba/F3 cells, retroviral pBabe-Puro vector

EGFR K754E = target: T20, EGFR K754E (Homo sapiens, UniProt P00533, K754E); conditions: Classical-Like, 72 hours
T20 construct: expressed in transfected cells; host or cells: Ba/F3 cells, retroviral pBabe-Puro vector
Procedure: Data represent the ratio of the IC50 value for a given TKI for cells with a classical-like EGFR mutation to the IC50 value for cells with wildtype EGFR.
as §1
After 48-72 hours of transduction, 2 μg/ml puromycin (Invitrogen) was added to Ba/F3 cell lines in complete RPMI. To select for EGFR positive cell lines, cells were stained with PE-EGFR (Biolegend) and sorted by FACS. After sorting, EGFR positive cells were maintained in RPMI containing 10% FBS, 1% penicillin/streptomycin, and 1 ng/ml EGF to support cell viability. […] Shortly, cells were plated in 384-well plates (Greiner Bio-One) at 2000-3000 cells per well in technical triplicate. Seven different concentrations of TKIs or DMSO vehicle were added to reach a final volume of 40 μL per well. After 72 hours, 11 μL of Cell Titer Glo (Promega) was added to each well. Plates were incubated for a minimum of 10 minutes, and bioluminescence was determined using a FLUOstar OPTIMA plate reader (BMG LABTECH). Raw bioluminescence values were normalized to DMSO control treated cells, and values were plotted in GraphPad Prism. […] Drug screens were performed in technical triplicate on each plate and either duplicate or triplicate biological replicates.

EGFR Ex19del/C797S = target: T21, EGFR Ex19del/C797S (Homo sapiens, UniProt P00533, C797S/DEL746-750); conditions: Ba/F3 cells, EGFR Ex19del/C797S (PACC), Mut/WT
T21 construct: expressed in transfected cells; host or cells: Ba/F3

EGFR Ex19del G724S = target: T22, EGFR Ex19del G724S (Homo sapiens, UniProt P00533, DEL746-750/G724S); conditions: Ba/F3 cells, EGFR Ex19del G724S (PACC), Mut/WT
T22 construct: expressed in transfected cells; host or cells: Ba/F3

EGFR V769L = target: T23, EGFR V769L (Homo sapiens, UniProt P00533, V769L); conditions: Ba/F3 cells, EGFR V769L (PACC), Mut/WT
T23 construct: expressed in transfected cells; host or cells: Ba/F3

EGFR E709_T710del insD = target: T24, EGFR E709_T710del insD (Homo sapiens, UniProt P00533, DEL709-709/T710D); conditions: Ba/F3 cells, EGFR E709_T710del insD (PACC), Mut/WT
T24 construct: expressed in transfected cells; host or cells: Ba/F3
Procedure: as §3, §1, §2

EGFR G724S T790M = target: T25, EGFR G724S T790M (Homo sapiens, UniProt P00533, G724S/T790M); conditions: T790M-like-3R, 72 hours
T25 construct: expressed in transfected cells; host or cells: Ba/F3

Structure (SMILES): C=CC(=O)Nc1cc(Nc2ncc(C(=O)OC(C)C)c(-c3cn(C)c4ccccc34)n2)c(OC)cc1N(C)CCN(C)C [TAK-788 (mobocertinib), mobocertinib]
- ratio of IC50 for cells with mutant EGFR to IC50 for cells with wildtype EGFR (Mut/WT) (EGFR L858R T790M L718V): 5.796
- ratio of the IC50 value for cells with a PACC EGFR mutation to the IC50 value for cells with wildtype EGFR (EGFR L747S): 2.299
- ratio of the IC50 value for cells with a PACC EGFR mutation to the IC50 value for cells with wildtype EGFR (EGFR G719A): 1.676
- ratio of IC50 for cells with mutant EGFR to IC50 for cells with wildtype EGFR (Mut/WT) (EGFR S768I/T790M): 10.82
- ratio of the IC50 value for cells with a PACC EGFR mutation to the IC50 value for cells with wildtype EGFR (EGFR Ex19del L718Q): 1.286
- ratio of IC50 for cells with mutant EGFR to IC50 for cells with wildtype EGFR (Mut/WT) (EGFR A767insASV): 1.553
- ratio of IC50 for cells with mutant EGFR to IC50 for cells with wildtype EGFR (Mut/WT) (EGFR G719A T790M): 0.4864
- ratio of the IC50 value for cells with a PACC EGFR mutation to the IC50 value for cells with wildtype EGFR (EGFR Ex19del T854I): 4.794
- ratio of the IC50 value for cells with a PACC EGFR mutation to the IC50 value for cells with wildtype EGFR (EGFR E709K G719S): 2.046
- ratio of the IC50 value for cells with a PACC EGFR mutation to the IC50 value for cells with wildtype EGFR (EGFR R776C): 0.04235
- ratio of the IC50 value for cells with a PACC EGFR mutation to the IC50 value for cells with wildtype EGFR (EGFR Ex19del G796S): 32.48
- ratio of the IC50 value for cells with a PACC EGFR mutation to the IC50 value for cells with wildtype EGFR (EGFR L858R G724S): 0.01089
- ratio of the IC50 value for cells with a PACC EGFR mutation to the IC50 value for cells with wildtype EGFR (EGFR Ex19del L718V): 1.296
- ratio of IC50 for cells with mutant EGFR to IC50 for cells with wildtype EGFR (Mut/WT) (EGFR Ex19del T790M C797S): 117.8
- ratio of the IC50 value for cells with a PACC EGFR mutation to the IC50 value for cells with wildtype EGFR (EGFR I740dupIPVAK): 7.185
- ratio of the IC50 value for cells with a PACC EGFR mutation to the IC50 value for cells with wildtype EGFR (EGFR S768I): 0.7766
- ratio of the IC50 value for cells with a PACC EGFR mutation to the IC50 value for cells with wildtype EGFR (EGFR V774M): 1.453
- ratio of the IC50 value for cells with a PACC EGFR mutation to the IC50 value for cells with wildtype EGFR (EGFR L858R/L792H): 0.0457
- ratio of the IC50 value for cells with a PACC EGFR mutation to the IC50 value for cells with wildtype EGFR (EGFR G724S): 108.6
- ratio of IC50 for cells with mutant EGFR to IC50 for cells with wildtype EGFR (Mut/WT) (EGFR L858R): 0.0472
- ratio of IC50 for cells with mutant EGFR to IC50 for cells with wildtype EGFR (Mut/WT) (EGFR K754E): 0.1738
- ratio of the IC50 value for cells with a PACC EGFR mutation to the IC50 value for cells with wildtype EGFR (EGFR Ex19del/C797S): 43.27
- ratio of the IC50 value for cells with a PACC EGFR mutation to the IC50 value for cells with wildtype EGFR (EGFR Ex19del G724S): 3.682
- ratio of the IC50 value for cells with a PACC EGFR mutation to the IC50 value for cells with wildtype EGFR (EGFR V769L): 3.454
- ratio of the IC50 value for cells with a PACC EGFR mutation to the IC50 value for cells with wildtype EGFR (EGFR E709_T710del insD): 0.0198
- ratio of IC50 for cells with mutant EGFR to IC50 for cells with wildtype EGFR (Mut/WT) (EGFR G724S T790M): 48.31
